{"source": "paper PMC3956377", "about": "“Rapid kill of malaria parasites by artemisinin and semi-synthetic endoperoxides involves ROS-dependent depolarization of the membrane potential” (Journal of Antimicrobial Chemotherapy, 2013)", "format_in_all_cases": "biochemical", "key": {"[1]": {"target": "T1, complex IV (cytochrome c oxidase) (Plasmodium falciparum, UniProt A0A5K1K9G8)", "T1 construct": "gene PF3D7_MIT02100; native complex in cell-free extract of saponin-freed parasites; cytochrome c oxidase activity; with Cytochrome c oxidase subunit 3", "T1 sequence (A0A5K1K9G8 1-508)": "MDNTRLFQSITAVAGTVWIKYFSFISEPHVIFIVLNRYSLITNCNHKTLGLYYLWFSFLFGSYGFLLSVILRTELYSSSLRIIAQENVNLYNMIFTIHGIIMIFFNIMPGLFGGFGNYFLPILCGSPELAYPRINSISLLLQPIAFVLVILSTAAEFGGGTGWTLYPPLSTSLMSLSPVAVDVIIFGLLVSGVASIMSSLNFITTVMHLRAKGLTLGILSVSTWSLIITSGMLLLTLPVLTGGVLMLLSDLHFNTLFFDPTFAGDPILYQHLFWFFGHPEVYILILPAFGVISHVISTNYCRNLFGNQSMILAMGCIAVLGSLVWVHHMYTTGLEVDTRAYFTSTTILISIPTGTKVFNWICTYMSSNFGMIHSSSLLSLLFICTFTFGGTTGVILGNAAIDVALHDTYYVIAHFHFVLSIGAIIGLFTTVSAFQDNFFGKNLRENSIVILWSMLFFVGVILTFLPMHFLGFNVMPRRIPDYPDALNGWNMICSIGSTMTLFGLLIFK", "T1 sequence (Q7HP05 1-279 partner)": "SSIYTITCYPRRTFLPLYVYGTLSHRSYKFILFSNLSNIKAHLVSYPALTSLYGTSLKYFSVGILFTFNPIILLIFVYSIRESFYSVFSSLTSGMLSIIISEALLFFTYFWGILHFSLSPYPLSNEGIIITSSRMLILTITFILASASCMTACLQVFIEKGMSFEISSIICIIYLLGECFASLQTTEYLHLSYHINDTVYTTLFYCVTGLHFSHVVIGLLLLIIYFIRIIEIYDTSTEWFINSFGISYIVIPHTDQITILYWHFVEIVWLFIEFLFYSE", "experiment": "spectrophotometric cytochrome c oxidation", "conditions": "read-out: Percentage inhibition / complex IV"}, "[2]": {"target": "T2, bc1 (complex III) (Plasmodium falciparum, UniProt Q7HP03+Q8IL75)", "T2 construct": "gene PF3D7_MIT02300; native complex in cell-free extract of saponin-freed parasites; decylubiquinol:cytochrome c oxidoreductase activity; with Cytochrome c1, heme protein, mitochondrial", "T2 sequence (Q7HP03 1-376)": "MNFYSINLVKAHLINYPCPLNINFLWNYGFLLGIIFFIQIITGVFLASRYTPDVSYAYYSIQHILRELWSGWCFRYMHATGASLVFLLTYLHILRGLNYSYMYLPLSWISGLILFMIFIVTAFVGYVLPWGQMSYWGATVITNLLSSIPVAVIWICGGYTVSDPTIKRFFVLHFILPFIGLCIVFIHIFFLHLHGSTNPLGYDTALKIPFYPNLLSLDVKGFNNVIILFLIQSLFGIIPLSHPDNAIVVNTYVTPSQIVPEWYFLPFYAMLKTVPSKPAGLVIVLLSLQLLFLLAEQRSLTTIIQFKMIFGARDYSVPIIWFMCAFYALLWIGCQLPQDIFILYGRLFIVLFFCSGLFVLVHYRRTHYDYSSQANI", "T2 sequence (Q8IL75 31-355)": "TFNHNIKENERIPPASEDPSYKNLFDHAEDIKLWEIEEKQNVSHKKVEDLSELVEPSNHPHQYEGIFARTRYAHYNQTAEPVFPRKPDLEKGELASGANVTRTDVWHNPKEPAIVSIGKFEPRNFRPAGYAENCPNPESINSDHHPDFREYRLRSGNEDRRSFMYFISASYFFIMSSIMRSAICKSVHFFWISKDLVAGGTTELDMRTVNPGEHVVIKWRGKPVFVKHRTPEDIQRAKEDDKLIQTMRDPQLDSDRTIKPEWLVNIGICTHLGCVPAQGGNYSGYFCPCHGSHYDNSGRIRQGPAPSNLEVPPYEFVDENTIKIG", "T2 sequence (Q8I6U9 1-394 partner)": "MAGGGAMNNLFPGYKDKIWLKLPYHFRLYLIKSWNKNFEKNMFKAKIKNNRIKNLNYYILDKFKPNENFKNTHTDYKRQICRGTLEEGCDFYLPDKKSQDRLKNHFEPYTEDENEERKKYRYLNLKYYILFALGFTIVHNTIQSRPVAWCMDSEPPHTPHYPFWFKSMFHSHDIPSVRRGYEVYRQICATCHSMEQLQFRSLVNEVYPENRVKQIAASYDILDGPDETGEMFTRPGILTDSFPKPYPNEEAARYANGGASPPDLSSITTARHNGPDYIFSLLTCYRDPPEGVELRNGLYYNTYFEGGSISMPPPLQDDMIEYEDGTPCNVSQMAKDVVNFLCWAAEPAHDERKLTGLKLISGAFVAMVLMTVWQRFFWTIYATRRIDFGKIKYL", "experiment": "spectrophotometric cytochrome c reduction ([…]-542 nm)", "conditions": "read-out: Percentage inhibition / bc1 (complex III)"}, "[3]": {"target": "T3, PfNDH2 (Plasmodium falciparum, UniProt Q8I302)", "T3 construct": "gene PF3D7_0915000; recombinant, heterologously expressed; Escherichia coli crude membrane preparation", "T3 sequence (Q8I302 34-533)": "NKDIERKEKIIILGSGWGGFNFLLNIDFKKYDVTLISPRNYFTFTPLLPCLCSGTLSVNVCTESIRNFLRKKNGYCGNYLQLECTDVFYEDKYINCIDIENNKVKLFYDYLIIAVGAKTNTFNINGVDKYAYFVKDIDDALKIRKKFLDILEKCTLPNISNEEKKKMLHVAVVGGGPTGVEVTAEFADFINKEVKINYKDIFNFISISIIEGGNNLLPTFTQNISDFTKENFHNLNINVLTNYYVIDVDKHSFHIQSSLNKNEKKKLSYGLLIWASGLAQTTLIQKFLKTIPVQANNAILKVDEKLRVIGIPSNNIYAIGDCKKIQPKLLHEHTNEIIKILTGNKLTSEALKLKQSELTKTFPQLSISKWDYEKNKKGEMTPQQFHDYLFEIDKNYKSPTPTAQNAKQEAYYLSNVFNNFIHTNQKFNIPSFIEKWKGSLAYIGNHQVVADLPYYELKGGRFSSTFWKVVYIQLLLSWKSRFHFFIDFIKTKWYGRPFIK", "experiment": "spectrophotometric NADH:quinone oxidoreductase assay ([…] and […] nm)", "conditions": "read-out: Percentage inhibition / PfNDH2"}}}
{"smiles": "CN1CCN(C2CCN(C(=O)CC3CCC4(CC3)OOC3(OO4)C4CC5CC(C4)CC3C5)CC2)CC1", "note": "(stereo not drawn)", "values": [{"measurement": "inhibition at 1 µM", "setting": "[1]", "value": "19.1 ± 2", "unit": "%"}, {"measurement": "inhibition at 1 µM", "setting": "[2]", "value": "23.2 ± 4.2", "unit": "%"}, {"measurement": "inhibition at 1 µM", "setting": "[3]", "value": "12.3 ± 4.9", "unit": "%"}]}
{"smiles": "CO[C@H]1O[C@@H]2O[C@@]3(C)CC[C@H]4[C@H](C)CC[C@@H]([C@H]1C)[C@@]24OO3", "note": "[Artemether]", "values": [{"measurement": "inhibition at 1 µM", "setting": "[1]", "value": "23 ± 2", "unit": "%"}, {"measurement": "inhibition at 1 µM", "setting": "[2]", "value": "1.8 ± 1.9", "unit": "%"}, {"measurement": "inhibition at 1 µM", "setting": "[3]", "value": "4.1 ± 3.3", "unit": "%"}]}
{"smiles": "C[C@@H]1CC[C@H]2[C@@H](C)C(=O)O[C@@H]3O[C@@]4(C)CC[C@@H]1[C@]32OO4", "note": "[Artemisinin]", "values": [{"measurement": "inhibition at 1 µM", "setting": "[1]", "value": "18.4 ± 4.3", "unit": "%"}, {"measurement": "inhibition at 1 µM", "setting": "[2]", "value": "3.2 ± 3.7", "unit": "%"}, {"measurement": "inhibition at 1 µM", "setting": "[3]", "value": "17.1 ± 4.2", "unit": "%"}]}
{"smiles": "C[C@H]1[C@H](OC(=O)CCC(=O)O)O[C@@H]2O[C@@]3(C)CC[C@H]4[C@H](C)CC[C@@H]1[C@@]24OO3", "note": "[Artesunate]", "values": [{"measurement": "inhibition at 1 µM", "setting": "[1]", "value": "21.1 ± 3.9", "unit": "%"}, {"measurement": "inhibition at 1 µM", "setting": "[2]", "value": "2.3 ± 0.4", "unit": "%"}, {"measurement": "inhibition at 1 µM", "setting": "[3]", "value": "3.7 ± 2.9", "unit": "%"}]}
{"smiles": "C[C@@H]1CC[C@H]2[C@@H](C)C(O)O[C@@H]3O[C@@]4(C)CC[C@@H]1[C@]32OO4", "note": "(stereo partly drawn) [Dihydroartemisinin]", "values": [{"measurement": "inhibition at 1 µM", "setting": "[1]", "value": "21.1 ± 7.9", "unit": "%"}, {"measurement": "inhibition at 1 µM", "setting": "[2]", "value": "6.7 ± 4.1", "unit": "%"}, {"measurement": "inhibition at 1 µM", "setting": "[3]", "value": "5 ± 4.3", "unit": "%"}]}
